≈ marks a conversion by molar mass, not a printed value.
Columns and labels:
[1] = target: T1, acid ceramidase (hACR) (Homo sapiens, UniProt Q13510); test: Acid ceramidase inhibition, biochemical fluorescent assay with cell lysates overexpressing acid ceramidase (substrate Rbm14-12); settings: cell lysate, 1 hr preincubation at RT, pH 4.5, Rbm14-12 6.3 μM; read-out: IC50 hACR
T1 construct: expressed in transfected cells
T1 sequence (Q13510 22-395): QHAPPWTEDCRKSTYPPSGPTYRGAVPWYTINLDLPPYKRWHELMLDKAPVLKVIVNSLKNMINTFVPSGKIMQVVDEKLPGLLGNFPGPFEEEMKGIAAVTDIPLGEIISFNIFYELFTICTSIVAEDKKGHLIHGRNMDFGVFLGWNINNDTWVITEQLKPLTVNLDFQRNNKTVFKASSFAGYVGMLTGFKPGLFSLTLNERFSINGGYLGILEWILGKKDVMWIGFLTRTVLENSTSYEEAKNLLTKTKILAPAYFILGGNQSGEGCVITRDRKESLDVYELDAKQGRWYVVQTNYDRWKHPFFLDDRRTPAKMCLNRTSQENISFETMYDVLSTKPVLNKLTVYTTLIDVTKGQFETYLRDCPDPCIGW
In short: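 Enzyme source was lysate from cells overexpressing acid ceramidase, 10 µg protein per reaction. Compounds were preincubated 1 h at RT in 25 mM NaAc, 100 mM NaCl, pH 4.5.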

[2] = Compound solubility in water; assay type: physicochemical

| Compound | IC50 [1] [nM] | solubility [2] [µg/mL] |
| --- | --- | --- |
| COc1nc(C)cn1C(=O)NCCC1CC(F)(F)C1 [Example 166, N-(2-(3,3-Difluorocyclobutyl)ethyl)-2-methoxy-4-methyl-1H-imidazole-1-carboxamide] | 200 to 1000 | 30 (≈ 110 µM) |
| COc1nc(C)cn1C(=O)NCCC1CCCC1(F)F (stereo not drawn) [Example 167, N-(2-(2,2-Difluorocyclopentyl)ethyl)-2-methoxy-4-methyl-1H-imidazole-1-carboxamide] | < 200 | 32 (≈ 111 µM) |
| COc1nc(Cl)cn1C(=O)NCCCC(F)(F)F [Example 168, 4-Chloro-2-methoxy-N-(4,4,4-trifluorobutyl)-1H-imidazole-1-carboxamide] | < 200 | 34 (≈ 119 µM) |
| COc1nc(C)c(C)n1C(=O)NCCc1ccccc1 [Example 170, 2-Methoxy-4,5-dimethyl-N-phenethyl-1H-imidazole-1-carboxamide] | < 200 | 10 (≈ 36.6 µM) |
| Cc1cn(C(=O)NCCCC(F)(F)F)c(Oc2ccccc2)n1 [Example 171, 4-Methyl-2-phenoxy-N-(4,4,4-trifluorobutyl)-1H-imidazole-1-carboxamide] | < 200 | 24 (≈ 73.3 µM) |
| Cc1cn(C(=O)NC2CCC(F)(F)CC2)c(Oc2ccccc2)n1 [Example 172, N-(4,4-Difluorocyclohexyl)-4-methyl-2-phenoxy-1H-imidazole-1-carboxamide] | < 200 | 4 (≈ 11.9 µM) |
| CN1CCC(c2cn(C(=O)NCCCC3(C(F)(F)F)CC3)cn2)CC1 [Example 174, 4-(1-Methylpiperidin-4-yl)-N-(3-(1-(trifluoromethyl)cyclopropyl)propyl)-1H-imidazole-1-carboxamide] | < 200 | 25 (≈ 69.8 µM) |
| O=C(NCCCC1(C(F)(F)F)CC1)n1cnc(-c2cccnc2N2CCCCC2)c1 [Example 175, 4-(2-(Piperidin-1-yl)pyridin-3-yl)-N-(3-(1-(trifluoromethyl)cyclopropyl)propyl)-1H-imidazole-1-carboxamide] | < 200 | 1 (≈ 2.37 µM) |
| O=C(NCCCC1(C(F)(F)F)CC1)n1ccnc1Oc1ccccc1 [Example 177, 2-Phenoxy-N-(3-(1-(trifluoromethyl)cyclopropyl)propyl)-1H-imidazole-1-carboxamide] | < 200 | 8 (≈ 22.6 µM) |
| O=C(NCCCC(F)(F)F)n1ccnc1Oc1ccccc1 [Example 178, 2-Phenoxy-N-(4,4,4-trifluorobutyl)-1H-imidazole-1-carboxamide] | < 200 | 32 (≈ 102 µM) |
| COc1nc(C)cn1C(=O)NCCCn1ccc(C(C)(C)C)n1 [Example 179, N-(3-(3-(tert-Butyl)-1H-pyrazol-1-yl)propyl)-2-methoxy-4-methyl-1H-imidazole-1-carboxamide] | < 200 | 22 (≈ 68.9 µM) |
| COc1nc(C)cn1C(=O)NCC#CC(C)C [Example 180, 2-Methoxy-4-methyl-N-(4-methylpent-2-yn-1-yl)-1H-imidazole-1-carboxamide] | < 200 | 17 (≈ 72.3 µM) |
| COc1nc(C)cn1C(=O)NCC#CCc1ccccc1 [Example 181, 2-Methoxy-4-methyl-N-(4-phenylbut-2-yn-1-yl)-1H-imidazole-1-carboxamide] | < 200 | 22 (≈ 77.6 µM) |
| COc1nc(C)cn1C(=O)NCC#CCC1(C(F)(F)F)CC1 [Example 182, 2-Methoxy-4-methyl-N-(4-(1-(trifluoromethyl)cyclopropyl)but-2-ynyl)-1H-imidazole-1-carboxamide] | < 200 | 25 (≈ 79.3 µM) |
| Cc1cn(C(=O)NC2CC2)c(OC2CCC(F)(F)CC2)n1 [Example 183, N-Cyclopropyl-2-(4,4-difluorocyclohexyloxy)-4-methyl-1H-imidazole-1-carboxamide] | 200 to 1000 | 31 (≈ 104 µM) |
| COc1nc(Br)cn1C(=O)NCCCC(F)(F)F [Example 184, 4-Bromo-2-methoxy-N-(4,4,4-trifluorobutyl)-1H-imidazole-1-carboxamide] | < 200 | 31 (≈ 93.9 µM) |
| COc1nc(Cl)cn1C(=O)NCCC1CCCC1(F)F (stereo not drawn) [Example 185, 4-Chloro-N-(2-(2,2-difluorocyclopentyl)ethyl)-2-methoxy-1H-imidazole-1-carboxamide] | < 200 | 29 (≈ 94.2 µM) |

| Compound | IC50 [1] [nM] | solubility [2] [µg/mL] |
| --- | --- | --- |
| CC(C)Oc1nc(Cl)cn1C(=O)NCCCC(F)(F)F [Example 187, 4-Chloro-2-isopropoxy-N-(4,4,4-trifluorobutyl)-1H-imidazole-1-carboxamide] | 200 to 1000 | 29 (≈ 92.4 µM) |
| CN1CCC(Oc2nc(Cl)cn2C(=O)NCCCC(F)(F)F)CC1 [Example 188, 4-Chloro-2-((1-methylpiperidin-4-yl)oxy)-N-(4,4,4-trifluorobutyl)-1H-imidazole-1-carboxamide] | 200 to 1000 | 36 (≈ 97.6 µM) |
| COc1nc(Cl)cn1C(=O)NC1CC1 [Example 189, 4-Chloro-N-cyclopropyl-2-methoxy-1H-imidazole-1-carboxamide] | > 1000 | 26 (≈ 121 µM) |
| Cc1cn(C(=O)NCCc2ccccc2)c(OCCN2CCN(C)CC2)n1 [Example 190, 4-Methyl-2-(2-(4-methylpiperazin-1-yl)ethoxy)-N-phenethyl-1H-imidazole-1-carboxamide] | < 200 | 39 (≈ 105 µM) |
| O=C(NCCC1CCCC1(F)F)n1cc(Cl)nc1OCCN1CCOCC1 (stereo not drawn) [Example 191, 4-Chloro-N-(2-(2,2-difluorocyclopentyl)ethyl)-2-(2-morpholinoethoxy)-1H-imidazole-1-carboxamide] | 200 to 1000 | 33 (≈ 81.1 µM) |
| COc1nc(-c2cccnc2N2CCN(C)CC2)cn1C(=O)NCC#CC(C)C [Example 194, 2-Methoxy-N-(4-methylpent-2-yn-1-yl)-4-(2-(4-methylpiperazin-1-yl)pyridin-3-yl)-1H-imidazole-1-carboxamide] | > 1000 | 45 (≈ 113 µM) |
| COc1nc(-c2cccnc2N2CCN(C)CC2)cn1C(=O)NCCCC1(C(F)(F)F)CC1 [Example 195] | > 1000 | 35 (≈ 75 µM) |
| Cc1cn(C(=O)NCC#Cc2ccccc2)c(OCCN2CCOCC2)n1 [Example 196, 4-Methyl-2-(2-morpholinoethoxy)-N-(3-phenylprop-2-yn-1-yl)-1H-imidazole-1-carboxamide] | < 200 | 31 (≈ 84.1 µM) |
| Cc1cn(C(=O)NCC#Cc2ccccc2)c(OCCN2CCN(C)CC2)n1 [Example 197, 4-Methyl-2-(2-(4-methylpiperazin-1-yl)ethoxy)-N-(3-phenylprop-2-yn-1-yl)-1H-imidazole-1-carboxamide] | < 200 | 38 (≈ 99.6 µM) |
| Cc1cn(C(=O)NCCCC(F)(F)F)c(OCCN2CCN(C)CC2)n1 [Example 198, 4-Methyl-2-(2-(4-methylpiperazin-1-yl)ethoxy)-N-(4,4,4-trifluorobutyl)-1H-imidazole-1-carboxamide] | 200 to 1000 | 38 (≈ 101 µM) |
| Cc1cn(C(=O)NCCOc2ccccc2)c(OCCN2CCN(C)CC2)n1 [Example 199, 4-Methyl-2-(2-(4-methylpiperazin-1-yl)ethoxy)-N-(2-phenoxyethyl)-1H-imidazole-1-carboxamide] | < 200 | 50 (≈ 129 µM) |
| Cc1cn(C(=O)NCCCC2(C(F)(F)F)CC2)c(OCCN2CCN(C)CC2)n1 [Example 200, 4-Methyl-2-(2-(4-methylpiperazin-1-yl)ethoxy)-N-(3-(1-(trifluoromethyl)cyclopropyl)propyl)-1H-imidazole-1-carboxamide] | < 200 | 49 (≈ 117 µM) |
| Cc1cn(C(=O)NCC#CCc2ccccc2)c(OCCN2CCN(C)CC2)n1 [Example 201, 4-Methyl-2-(2-(4-methylpiperazin-1-yl)ethoxy)-N-(4-phenylbut-2-ynyl)-1H-imidazole-1-carboxamide] | < 200 | 39 (≈ 98.6 µM) |
| CN1CCN(CCOc2nc(-c3ccccc3)cn2C(=O)NCC#Cc2ccccc2)CC1 [Example 202] | < 200 | 7 (≈ 15.8 µM) |
| Cc1cn(C(=O)NCc2ccc(-c3ccccc3)cc2)c(OCCN2CCN(C)CC2)n1 [Example 203, N-(Biphenyl-4-ylmethyl)-4-methyl-2-(2-(4-methylpiperazin-1-yl)ethoxy)-1H-imidazole-1-carboxamide] | < 200 | 30 (≈ 69.2 µM) |
| CN1CCC(c2cn(C(=O)NCCC#Cc3ccccc3)cn2)CC1 [Example 204, 4-(1-Methylpiperidin-4-yl)-N-(4-phenylbut-3-yn-1-yl)-1H-imidazole-1-carboxamide] | < 200 | 31 (≈ 92.1 µM) |
